Reference: the NIST ThermoML archive (doi:10.1016/j.jct.2008.09.002)
± gives the expanded uncertainty stated by the source.

Assays:
[1] = excess molar enthalpy (molar enthalpy of mixing); xn = mol fraction of the nth substance listed; details: 303.15 K, 101.3 kPa, Liquid, Calvet calorimetry
[2] = molar heat capacity at constant pressure; details: 101.33 kPa, Liquid, Small sample (50 mg) DSC
[3] = 101.33 kPa, Liquid; for speed of sound: Anton-Paar DSA48 sound analyzer; for mass density: Vibrating tube method

| SMILES | molar heat capacity at constant pressure ([2]; 293.15 K) [J/K/mol] | molar heat capacity at constant pressure ([2]; 298.15 K) [J/K/mol] | molar heat capacity at constant pressure ([2]; 303.15 K) [J/K/mol] | molar heat capacity at constant pressure ([2]; 308.15 K) [J/K/mol] | molar heat capacity at constant pressure ([2]; 313.15 K) [J/K/mol] | molar heat capacity at constant pressure ([2]; 318.15 K) [J/K/mol] | speed of sound ([3]; 293.15 K) [m/s] | mass density ([3]; 293.15 K) [kg/m3] | speed of sound ([3]; 298.15 K) [m/s] | mass density ([3]; 298.15 K) [kg/m3] | speed of sound ([3]; 303.15 K) [m/s] | mass density ([3]; 303.15 K) [kg/m3] | speed of sound ([3]; 308.15 K) [m/s] | mass density ([3]; 308.15 K) [kg/m3] | speed of sound ([3]; 313.15 K) [m/s] | mass density ([3]; 313.15 K) [kg/m3] | speed of sound ([3]; 318.15 K) [m/s] | mass density ([3]; 318.15 K) [kg/m3] | further results |
| --- | --- | --- | --- | --- | --- | --- | --- | --- | --- | --- | --- | --- | --- | --- | --- | --- | --- | --- | --- |
| C[N+](=O)[O-] [nitromethane] + CCCC[n+]1cccc(C)c1.F[B-](F)(F)F |  |  |  |  |  |  |  |  |  |  |  |  |  |  |  |  |  |  | excess molar enthalpy ([1]; x2 = 0.0992): -0.0602 ± 0.00478 kcal/mol; excess molar enthalpy ([1]; x2 = 0.1547): -0.0784 ± 0.00621 kcal/mol; excess molar enthalpy ([1]; x2 = 0.1998): -0.0958 ± 0.00765 kcal/mol; excess molar enthalpy ([1]; x2 = 0.3029): -0.106 ± 0.0086 kcal/mol; excess molar enthalpy ([1]; x2 = 0.3978): -0.114 ± 0.00908 kcal/mol; excess molar enthalpy ([1]; x2 = 0.4973): -0.112 ± 0.00908 kcal/mol; excess molar enthalpy ([1]; x2 = 0.6053): -0.0946 ± 0.00765 kcal/mol; excess molar enthalpy ([1]; x2 = 0.7038): -0.0803 ± 0.00645 kcal/mol; excess molar enthalpy ([1]; x2 = 0.795): -0.0557 ± 0.00454 kcal/mol; excess molar enthalpy ([1]; x2 = 0.8525): -0.0387 ± 0.00311 kcal/mol |
| C[N+](=O)[O-] [nitromethane] | 106.6 ± 1.7 | 106.9 ± 1.7 | 107.3 ± 1.7 | 107.7 ± 1.7 | 108.2 ± 1.7 | 108.6 ± 1.7 | 1339.6 ± 1.5 | 1140.2 ± 0.7 | 1320.1 ± 1.5 | 1133.4 ± 0.7 | 1300.5 ± 1.5 | 1126.6 ± 0.7 | 1280.7 ± 1.5 | 1119.7 ± 0.6 | 1261.1 ± 1.5 | 1112.9 ± 0.6 | 1241.6 ± 1.5 | 1106 ± 0.6 |  |
| CCCCn1cc[n+](C)c1.F[B-](F)(F)F [1-butyl-3-methylimidazolium tetrafluoroborate] | 359.8 ± 5.6 | 363.1 ± 5.6 | 366.1 ± 5.7 | 368.7 ± 5.7 | 371 ± 5.7 | 372.9 ± 5.8 | 1594.9 ± 2 | 1207.6 ± 1.3 | 1576.1 ± 2 | 1204.1 ± 1.3 | 1555.5 ± 2 | 1200.5 ± 1.3 | 1543.9 ± 2 | 1197 ± 1.3 | 1532.5 ± 2 | 1193.4 ± 1.3 | 1521.2 ± 2 | 1189.9 ± 1.3 |  |
| CCCCn1cc[n+](C)c1.COS(=O)(=O)[O-] [1-butyl-3-methylimidazolium methyl sulfate] | 413.7 ± 6.4 | 416.2 ± 6.4 | 418.5 ± 6.5 | 420.9 ± 6.5 | 423.3 ± 6.6 | 425.6 ± 6.6 | 1670.9 ± 2 | 1210.7 ± 1.3 | 1658.4 ± 2 | 1207.4 ± 1.3 | 1646 ± 2 | 1204.1 ± 1.3 | 1633.5 ± 2 | 1200.8 ± 1.3 | 1621.1 ± 2 | 1197.5 ± 1.3 | 1608.6 ± 2 | 1194.2 ± 1.3 |  |
| CCCC[n+]1cccc(C)c1.F[B-](F)(F)F [1-butyl-3-methylpyridinium tetrafluoroborate] |  |  |  |  |  |  | 1599.8 ± 2 |  | 1587 ± 2 |  | 1574.8 ± 2 |  | 1562.6 ± 2 |  | 1550.7 ± 2 |  | 1538.9 ± 2 |  |  |
| CCCCn1cc[n+](C)c1.O=S(=O)([O-])C(F)(F)F [1-butyl-3-methylimidazolium trifluoromethanesulfonate] | 421.6 ± 6.5 | 424.1 ± 6.6 | 426.7 ± 6.6 | 429.5 ± 6.7 | 432.4 ± 6.7 | 435.5 ± 6.7 | 1403.4 ± 2 | 1301.6 ± 1.5 | 1392.1 ± 2 | 1297.6 ± 1.5 | 1380.9 ± 2 | 1293.7 ± 1.5 | 1369.8 ± 2 | 1289.7 ± 1.5 | 1358.8 ± 2 | 1285.8 ± 1.5 | 1348.1 ± 2 | 1281.9 ± 1.5 |  |
| CCCCCCn1cc[n+](C)c1.F[B-](F)(F)F [1-hexyl-3-methylimidazolium tetrafluoroborate] | 425.1 ± 6.6 | 427.8 ± 6.6 | 430.4 ± 6.7 | 433 ± 6.7 | 435.5 ± 6.7 | 438.1 ± 6.8 | 1532.7 ± 2 | 1148.8 ± 1.2 | 1519.5 ± 2 | 1145.3 ± 1.1 | 1506.9 ± 2 | 1141.8 ± 1.1 | 1494.5 ± 2 | 1138.4 ± 1.1 | 1482.3 ± 2 | 1135 ± 1.1 | 1470.5 ± 2 | 1131.6 ± 1.1 |  |
| CCn1cc[n+](C)c1.O=S(=O)([O-])C(F)(F)F [1-ethyl-3-methylimidazolium trifluoromethanesulfonate] | 361.1 ± 5.6 | 363.2 ± 5.6 | 365.3 ± 5.7 | 367.4 ± 5.7 | 369.6 ± 5.7 | 371.8 ± 5.8 | 1447 ± 2 | 1389.5 ± 1.7 | 1435.6 ± 2 | 1385.3 ± 1.7 | 1424.3 ± 2 | 1381.1 ± 1.7 | 1413.1 ± 2 | 1376.9 ± 1.7 | 1402.1 ± 2 | 1372.7 ± 1.7 | 1391.1 ± 2 | 1368.6 ± 1.7 |  |
| CCOS(=O)(=O)[O-].CCn1cc[n+](C)c1 [1-ethyl-3-methylimidazolium ethyl sulfate] | 392.2 ± 6.1 | 394.4 ± 6.1 | 396.8 ± 6.1 | 399.3 ± 6.2 | 402 ± 6.2 | 404.9 ± 6.3 | 1691.4 ± 2 | 1240.6 ± 1.4 | 1679 ± 2 | 1237.2 ± 1.4 | 1666.6 ± 2 | 1233.8 ± 1.4 | 1654 ± 2 | 1230.4 ± 1.3 | 1641.6 ± 2 | 1227 ± 1.3 | 1629.2 ± 2 | 1223.7 ± 1.3 |  |
